Results from patent publication US11746103B2, “ALK-5 inhibitors and uses thereof” (Sumitomo Pharma Oncology, Inc., priority 2020, dated 2023).
“Also recorded” adds a separate entry of the source.

What was measured:
[1] = system: human CD4+CD45RA+ naïve T cells; assay: In vitro Treg differentiation study; assay type: cell-based; conditions: CD3/CD28+IL2+TGFβ, 5 days
Method: The effect of EX-11 on Treg differentiation was evaluated using human CD4^+CD45RA^+ naïve T cells from Lonza. CD4^+/CD45RA^+ naïve T cells were treated with EX-11, CD3/CD28 ([…] Technologies) and 10 ng/ml of IL-2 (Thermo Fisher Scientific) with or without 5 ng/ml TGFβ (R&D Systems) in ImmunoCult™-XF T cell expansion medium for 5 days. Flow cytometry was performed using anti-human FoxP3 staining kit (BD biosciences) to evaluate the frequency of CD4^+CD25^+Foxp3^+ Treg cells.

[2] = system: HLA class I expression in KGN cells; assay: HLA expression in KGN cell line (flow cytometry); assay type: cell-based, human; conditions: 72 hours
Method: KGN cells were treated with 30 nM EX-11, 300 nM EX-11 or DMSO in the absence or presence of 1 ng/mL TGFβ for 72 hours. Cells were then washed, collected and incubated in the dark at 4° C. for 1 hour with a pan HLA class I antibody conjugated to PE (BD Pharmingen cat #560168). The cells were washed and analyzed by flow cytometry on an Attune N×T.

4T1-luc tumors = assay: 4T1 syngeneic TNBC model; assay type: in vivo, mouse
Method: Tumor measurements were performed via digital calipers.
The vehicle for anti-PD-1 inhibitor was PBS.
The study dosing phase was 21 days. At the end of the study, animals were injected with luciferin, then sacrificed. Ex vivo imaging of the lung and liver tissue was performed to assess metastasis.

ES-2-luc cells [3] = assay: ES-2 survival study (ovarian cancer xenograft); assay type: in vivo, mouse; conditions: 150 mg/Kg twice a day, P.O.
Description: Ovarian cancer is still associated with poor prognosis and remains among the leading causes of oncology-related deaths in females. High recurrence rates, resistance to chemotherapy and meager outcome highlight the need for improved therapies that stem from understanding the complex and multifactorial etiology of ovarian malignancies. TGF-01 signaling within tumor microenvironment regulates important steps in ovarian cancer progression such as epithelial to mesenchymal transition, dissemination, and metastasis. Inhibition of TGF-01 signaling pathway has shown a potential as a pharmaceutical target in ovarian malignancies. ES-2 ovarian cancer mouse xenograft model was used to test efficacy of EX-11 in ovarian cancer, as measured by improvement in survival.
(§1) Sixteen-week-old female athymic nude mice were injected with two million ES-2-luc cells. […]
(§2) Mortality was recorded for animals found dead in the cage, and for the animals sacrificed based on humane end point based on main three criteria—loss of mobility and response, wasting with pronounced ascites fluid buildup, and palpable drop in body temperature (animals were assessed as cold to touch when handled in gloves).
(§3) On study day 22, the remaining surviving animals in the vehicle group were determined moribund, and the study was terminated based on humane end point criteria. […]

ES-2-luc cells [4] = assay: Cachexia model (ES-2 clear cell carcinoma); assay type: in vivo, mouse; conditions: 150 mg/Kg BID
Description: TGF-β1 signaling regulates ovarian cancer progression during initial carcinogenesis, tumor dissemination, and reestablishment of ascites through peritoneal cavity. Clear cell carcinoma is a specifically aggressive and therapy-resistant subtype of epithelial ovarian cancer. ES-2 clear cell carcinoma in vivo model was used to test efficacy of EX-11 in reducing ovarian tumor burden as determined by ascites fluid volume assessment. Because ALK5 signaling can regulate muscle growth and wasting, the efficacy of EX-11 in preventing ovarian cancer-induced cachexia was tested. Muscle health was assessed using histological evaluation of heart muscle tissue, and by comparison of gross weight of hind limb between the different treatment groups.
as §1, §2, §3

EMT6 tumors = assay: EMT6 syngeneic TNBC model
Method: The objective of this study was to evaluate preclinically the in vivo therapeutic efficacy of combining EX-11 with anti-PD-L1 and/or anti-PD-1 therapy for the treatment of EMT6 tumors orthotopically implanted in the mammary fat pad of female Balb/C mice.
Balb/C mice (aged 7-9 weeks) were inoculated orthotopically in the right mammary fat pad with EMT6 breast cancer cells (2.5×10^5) in 0.1 ml of PBS. Tumor measurements were performed via digital calipers. Once the mean tumor size reached approximately 85 mm^3 (day 11), 120 mice were randomized to 8 treatment arms (15 mice per arm).
The anti-PD-L1 inhibitor used in this study was a product of BioXcell (Cat #: BE0101, Clone #: 10F.9G2). The vehicle for the anti-PD-L1 inhibitor was PBS. The anti-PD-1 inhibitor used in this study was a product of BioXcell (Cat #: BE0146, Clone #: RMP1-14). The vehicle for the anti-PD-1 inhibitor was PBS. These inhibitors were injected intraperitoneally (i.p.), bi-weekly (BIW) for 3 weeks. The vehicle for EX-11 was NMP (10%)+20% Solutol in WFI (Water for Injection) (90%). The vehicle used for EX-11 was also used for the “Vehicle” arm of the study. EX-11 and the vehicle were delivered via oral gavage (p.o.), bi-daily (BID) for 21 days.
Body weights and tumor volumes were measured twice per week. Tumor volumes were measured in two dimensions using a caliper, and the volume was expressed in mm^3 using the formula: V=(L×W×W)/2, where V is tumor volume, L is tumor length (the longest tumor dimension) and W is tumor width (the longest tumor dimension perpendicular to L). Tumor Growth Inhibition (TGI) reported was TGI at the final study day, and is expressed as Mean % Δ Inhibition and was calculated using the following formula: [(C−C0)−(T−T0)/(C−C0)]*100%, where C refers to the tumor volume of the vehicle on the final study day, C0 to the tumor volume of the vehicle on the first day of dosing, T to the tumor volume of the treatment on a specific day of dosing and T0 to the tumor volume of the treatment group on the first day of dosing.
The first phase of the study was the dosing phase and was terminated at day 21, where 3 animals were sacrificed, and plasma and tumor samples were collected for biomarker analysis. The remaining 12 animals were monitored without dosing to determine mean survival.

pSmad2 in KGN cells = assay: pSmad2 Luminex assay in KGN cell line; assay type: cell-based; conditions: 2 hours, read-out: pSmad2 pathway inhibition
Method: KGN cells were incubated with three 10-fold dilutions of EX-11 or DMSO for 2 hours. Cells were harvested and lysed, and protein concentration was quantified by BCA. 10 μg of total protein was added to the assay plate provided in the Milliplex TGFβ 6-plex kit with GAPDH MapMate beads, and the manufacturer's protocol was followed. Data was collected on the MagPix Xmap (Luminex).

[5] = EX-11 at 75 mg/kg PO BID x 21 days
[6] = EX-11 at 150 mg/kg PO BID x 21 days

Cc1cccc2c(Nc3ccnc(Nc4cccc(N5CCOCC5)c4)n3)cnnc12 [EX-11, N4-(8-methylcinnolin-4-yl)-N2-(3-morpholinophenyl)pyrimidine-2,4-diamine]
Treg frequency (CD4+CD25+Foxp3+ Treg cells as percentage of cells not treated with TGFβ) ([1]; 30 nM): 480%
Treg frequency (CD4+CD25+Foxp3+ Treg cells as percentage of cells not treated with TGFβ) ([1]; 300 nM): 342%
Treg frequency (CD4+CD25+Foxp3+ Treg cells as percentage of cells not treated with TGFβ) ([1]; 3000 nM): 126%
HLA class I expression repressed by TGFβ stimulation ([2]; 30 nM, 300 nM + 1 ng/mL TGFβ): reversed
increase of HLA class I expression ([2]; absence of TGFβ): up to 2 fold
tumor growth inhibition (TGI) compared to vehicle (4T1-luc tumors; [5]): did not result in significant TGI
tumor growth inhibition (TGI) compared to vehicle (4T1-luc tumors; [6]): 38%
ex vivo luminescence of liver (metastasis) compared to vehicle (4T1-luc tumors; EX-11 at 150 mg/kg where given): stronger reduction in luminescence
overall survival compared with vehicle-treated animals (ES-2-luc cells [3]): significantly increased; also recorded: significantly improved
ascites fluid volume compared to vehicle (ES-2-luc cells [4]): reduction in total fluid volume; also recorded: reduced ascites fluid volume
whole hind limb weight compared to vehicle (ES-2-luc cells [4]): recorded higher; also recorded: improved hind limb weight retention
tumor growth inhibition (TGI) compared to vehicle (EMT6 tumors; [5]): did not result in significant TGI
tumor growth inhibition (TGI) compared to vehicle (EMT6 tumors; [6]): 37%
Mean survival (EMT6 tumors; EX-11 at 150 mpk where given): 25 days
tumor pliability (EMT6 tumors; all groups receiving EX-11 vs vehicle or checkpoint antibody single agent): substantially more pliable
inhibition at 0.01 µM (pSmad2 in KGN cells; Homo sapiens, 10 nM): 17%
inhibition at 0.1 µM (pSmad2 in KGN cells; Homo sapiens, 100 nM): 74%
inhibition at 1 µM (pSmad2 in KGN cells; Homo sapiens, 1,000 nM): 97%
